Experimental data taken from patent US20260297042A1, “BIARYLAMIDE DERIVATIVES AND THEIR USE AS PKMYT1 INHIBITORS” (CANCER RESEARCH TECHNOLOGY LIMITED, priority 2023, published 2026).

How the values were obtained:
KYSE-30 cells = experiment: Cancer cell line proliferation assay, ATP-based cell viability (Cell Titre Glow), KYSE-30 (normal CCNE1); details: Homo sapiens, KYSE-30 cells (normal CCNE1), concentration that achieves 50% cell growth proliferation inhibition, read-out: KYSE30 Gl50
Outline: (§1)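 Luminescence read-out from an ATP-based viability reagent served as the proliferation measure. Values are GI50 estimates, i.e. concentrations producing 50% inhibition of cell growth.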

OVCAR 3 cells = experiment: Cancer cell line proliferation assay, ATP-based cell viability (Cell Titre Glow), OVCAR 3 (CCNE1-amplified); details: KYSE30 (normal CCNE1) GI50 vs. OVCAR 3 (CCNE1-amplified) GI50
Outline: as §1

Human PKMYT1 = target: T1, Human PKMYT1 (Homo sapiens, UniProt Q99640); experiment: PKMYT1 biochemical ADP-Glo enzymatic assay; details: ADP-Glo
T1 construct: Human PKMYT1 75-362 was cloned as a TEV cleavable 6xHis fusion; 6xHis (TEV cleavable) (cleaved yes); made in house; host or cells: bacterial cells
T1 sequence (Q99640 75-362): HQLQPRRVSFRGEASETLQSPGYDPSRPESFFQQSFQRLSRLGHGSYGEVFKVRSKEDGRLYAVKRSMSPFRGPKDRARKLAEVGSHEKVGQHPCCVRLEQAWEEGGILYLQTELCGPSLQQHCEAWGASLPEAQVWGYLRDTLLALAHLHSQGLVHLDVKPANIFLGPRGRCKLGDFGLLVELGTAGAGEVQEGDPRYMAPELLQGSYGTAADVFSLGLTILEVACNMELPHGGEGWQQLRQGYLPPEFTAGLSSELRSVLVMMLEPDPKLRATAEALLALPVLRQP
Outline: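 Intrinsic ATPase activity of E. coli-expressed, tag-cleaved human PKMYT1 kinase domain (75-362), 15 nM, with 500 µM ATP in HEPES pH 7.5/MgCl2/EGTA/Brij-35, 1% DMSO, 60 min at 26 °C. ADP formed was read by ADP-Glo Max luminescence; IC50 from 10-point, 3-fold dilution curves.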

WEE1 = target: T2, WEE1 (Homo sapiens, UniProt P30291); experiment: Selectivity versus WEE1 assay (ADP-Glo enzymatic assay); assay type: biochemical; details: for IC50: ADP-Glo; for PKMYT1 vs. WEE1 selectivity: fold difference in selectivity for PKMYT1 over WEE1
T2 construct: purchased Thermo Fisher PR7373A
T2 sequence (P30291 whole entry): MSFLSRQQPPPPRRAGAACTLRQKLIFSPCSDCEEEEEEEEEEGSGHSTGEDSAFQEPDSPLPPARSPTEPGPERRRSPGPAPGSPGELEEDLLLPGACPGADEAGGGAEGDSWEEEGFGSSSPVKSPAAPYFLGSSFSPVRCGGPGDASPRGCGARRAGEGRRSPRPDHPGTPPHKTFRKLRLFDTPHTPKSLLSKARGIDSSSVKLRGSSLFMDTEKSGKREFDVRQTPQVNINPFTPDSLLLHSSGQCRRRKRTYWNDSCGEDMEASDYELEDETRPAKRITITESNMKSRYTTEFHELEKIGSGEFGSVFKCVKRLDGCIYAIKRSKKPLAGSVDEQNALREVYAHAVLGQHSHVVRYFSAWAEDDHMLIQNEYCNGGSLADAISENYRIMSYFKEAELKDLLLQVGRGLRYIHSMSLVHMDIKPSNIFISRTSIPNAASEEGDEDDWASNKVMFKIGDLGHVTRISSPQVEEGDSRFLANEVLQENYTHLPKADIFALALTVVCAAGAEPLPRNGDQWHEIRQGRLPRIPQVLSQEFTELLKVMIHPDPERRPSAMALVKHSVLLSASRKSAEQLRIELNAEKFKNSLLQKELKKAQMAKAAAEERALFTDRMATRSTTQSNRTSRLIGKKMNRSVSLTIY
Outline: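 Kinase at 15 nM final in 50 mM HEPES pH 7.5, 10 mM MgCl2, 1 mM EGTA, 0.01% Brij-35, 1% DMSO was started with 30 µM ATP and run 60 min at 26° C. ADP formed was read by ADP-Glo luminescence; IC50 came from dose-response curves.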

[1] = target: T3, Cellular PKMYT1 Biomarker CDK1 pT14 (Homo sapiens, UniProt Q99640); experiment: Inhibition of cellular PKMYT1 biomarker CDK1 pT14 in OVCAR 3 cells (immunoblot); assay type: cell-based; details: 20 hours incubation
T3 construct: read-out CDK1 phospho-T14 immunoblot
T3 sequence (Q99640 1-499): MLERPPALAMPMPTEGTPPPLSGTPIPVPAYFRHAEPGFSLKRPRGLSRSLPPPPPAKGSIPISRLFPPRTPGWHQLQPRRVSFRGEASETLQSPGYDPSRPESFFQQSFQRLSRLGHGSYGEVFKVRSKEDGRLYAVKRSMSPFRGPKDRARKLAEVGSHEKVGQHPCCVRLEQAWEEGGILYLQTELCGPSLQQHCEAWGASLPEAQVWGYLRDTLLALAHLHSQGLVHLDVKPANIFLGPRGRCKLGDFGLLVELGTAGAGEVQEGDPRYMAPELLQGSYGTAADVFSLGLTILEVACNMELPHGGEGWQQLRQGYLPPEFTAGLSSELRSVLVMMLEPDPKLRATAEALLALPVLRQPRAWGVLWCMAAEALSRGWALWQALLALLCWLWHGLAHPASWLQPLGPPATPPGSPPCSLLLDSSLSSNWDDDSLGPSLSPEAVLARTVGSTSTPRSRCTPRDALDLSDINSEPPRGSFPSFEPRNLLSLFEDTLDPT
Outline: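 Confluent OVCAR 3 cells treated with a compound concentration range for 20 h at 37 °C. Lysates analysed by automated capillary immunoblot for CDK1 phospho-T14, with vinculin, fluorescence detection; IC50 by regression.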

[2] = PKMYT1 kinase domain 15 nM, banded values
[3] = 15 nM PKMYT1 kinase domain, 500 µM ATP, 60 minutes at 26° C., banded
[4] = 15 nM WEE1, 60 minutes at 26° C., banded
[5] = banded, ">N" = at least in this band but could be higher

Row | SMILES | GI50 (KYSE-30 cells) [nM] | Selectivity ratio KYSE30 Gl50 vs. OVCAR3 Gl50 (OVCAR 3 cells) | IC50 (Human PKMYT1; [2]) [nM] | IC50 (WEE1; WEE1 15 nM, banded values) [nM] | PKMYT1 vs. WEE1 selectivity (WEE1; banded) | IC50 [1] [nM] | IC50 (Human PKMYT1; [3]) [nM] | IC50 (WEE1; [4]) [nM] | PKMYT1 vs. WEE1 selectivity (WEE1; [5])
1 | Cc1ccc(O)c(C)c1NC(=O)c1cnc(Nc2cccc(CC(=O)N(C3CC3)C3CC3)n2)s1 [BAA-427, 2-((6-(2-(Dicyclopropylamino)-2-oxoethyl)pyridin-2-yl)amino)-N-(3-hydroxy-2,6-dimethylphenyl)thiazole-5-carboxamide] | > 5000 | Y (>20 fold) | < 50 | > 11000 | Z (>5000 fold) | < 100 | – | – | –
2 | Cc1ccnc(Nc2ncc(C(=O)Nc3c(C)ccc(O)c3C)s2)c1 [BAA-422, N-(3-hydroxy-2,6-dimethylphenyl)-2-((4-methylpyridin-2-yl)amino)thiazole-5-carboxamide] | 500 to 5000 | Y (>20 fold) | < 50 | 1000 to 11000 | X (100-<1000 fold) | < 100 | – | – | –
3 | Cc1ccc(O)c(C)c1NC(=O)c1cnc(Nc2cc(Cl)cc(NC(=O)C(C)(C)C)n2)s1.Cl [BAA-334, 2-((4-chloro-6-pivalamidopyridin-2-yl)amino)-N-(3-hydroxy-2,6-dimethylphenyl)thiazole-5-carboxamide hydrochloride] | 500 to 5000 | Y (>20 fold) | – | – | – | < 100 | 50 to 1000 | > 11000 | X (100-<1000 fold)
4 | Cc1ccc(N[S+]([O-])C(C)(C)C)nc1Nc1ncc(C(=O)Nc2c(C)ccc(O)c2C)s1 (stereo not drawn) [BAA-340, 2-((6-((tert-Butylsulfinyl)amino)-3-methylpyridin-2-yl)amino)-N-(3-hydroxy-2,6-dimethylphenyl)thiazole-5-carboxamide] | 500 to 5000 | Y (>20 fold) | – | – | – | 100 to 1000 | < 50 | 50 to 1000 | V (3-<10 fold)
5 | Cc1ccc(O)c(C)c1NC(=O)c1cnc(Nc2n[nH]cc2Cl)s1 [BAA-566, 2-((4-chloro-1H-pyrazol-3-yl)amino)-N-(3-hydroxy-2,6-dimethylphenyl)thiazole-5-carboxamide] | > 5000 | Y (>20 fold) | < 50 | 1000 to 11000 | X (100-<1000 fold) | < 100 | – | – | –
6 | Cc1ccc(NC(=O)C2CCOCC2)nc1Nc1ncc(C(=O)Nc2c(C)ccc(O)c2C)s1.Cl [BAA-331, N-(3-hydroxy-2,6-dimethylphenyl)-2-((3-methyl-6-(tetrahydro-2H-pyran-4-carboxamido)pyridin-2-yl)amino)thiazole-5-carboxamide hydrochloride] | 500 to 5000 | Y (>20 fold) | – | – | – | < 100 | < 50 | > 11000 | Y (1000-5000 fold)
7 | Cc1cccc(Nc2ncc(C(=O)Nc3c(C)ccc(O)c3C)s2)n1 [BAA-407, N-(3-hydroxy-2,6-dimethylphenyl)-2-((6-methylpyridin-2-yl)amino)thiazole-5-carboxamide] | > 5000 | Y (>20 fold) | < 50 | 1000 to 11000 | X (100-<1000 fold) | < 100 | – | – | –
8 | Cc1ccc2c(Nc3ncc(C(=O)Nc4c(C)ccc(O)c4C)s3)nn(C)c2c1 [BAA-451, 2-((1,6-dimethyl-1H-indazol-3-yl)amino)-N-(3-hydroxy-2,6-dimethylphenyl)thiazole-5-carboxamide] | > 5000 | Y (>20 fold) | < 50 | 1000 to 11000 | X (100-<1000 fold) | < 100 | – | – | –
9 | Cc1ccc(O)c(C)c1NC(=O)c1cnc(Nc2ccccn2)s1 [BAA-421, N-(3-hydroxy-2,6-dimethylphenyl)-2-(pyridin-2-ylamino)thiazole-5-carboxamide] | 500 to 5000 | Y (>20 fold) | < 50 | > 11000 | X (100-<1000 fold) | < 100 | – | – | –
10 | Cc1ccc(O)c(C)c1NC(=O)c1cnc(Nc2c3cccnc3nn2C)s1 [BAA-243, N-(3-hydroxy-2,6-dimethylphenyl)-2-((2-methyl-2H-pyrazolo[3,4-b]pyridin-3-yl)amino)thiazole-5-carboxamide] | > 5000 | X (3-20 fold) | – | – | – | < 100 | < 50 | 1000 to 11000 | X (100-<1000 fold)
11 | Cc1cn(C2CCC2)nc1Nc1ncc(C(=O)Nc2c(C)ccc(O)c2C)s1 [BAA-270, 2-((1-cyclobutyl-4-methyl-1H-pyrazol-3-yl)amino)-N-(3-hydroxy-2,6-dimethylphenyl)thiazole-5-carboxamide] | < 500 | Y (>20 fold) | – | – | – | < 100 | < 50 | 1000 to 11000 | X (100-<1000 fold)
12 | Cc1cn(CC(=O)N2CCCC2(C)C)nc1Nc1ncc(C(=O)Nc2c(C)ccc(O)c2C)s1 [BAA-605, 2-((1-(2-(2,2-dimethylpyrrolidin-1-yl)-2-oxoethyl)-4-methyl-1H-pyrazol-3-yl)amino)-N-(3-hydroxy-2,6-dimethylphenyl)thiazole-5-carboxamide] | > 5000 | Y (>20 fold) | < 50 | 1000 to 11000 | X (100-<1000 fold) | < 100 | – | – | –
13 | Cc1cn(-c2ccn(C)n2)nc1Nc1ncc(C(=O)Nc2c(C)ccc(O)c2C)s1 [BAA-398, 2-((1′,4-dimethyl-1′H-[1,3′-bipyrazol]-3-yl)amino)-N-(3-hydroxy-2,6-dimethylphenyl)thiazole-5-carboxamide] | 500 to 5000 | Y (>20 fold) | < 50 | 1000 to 11000 | X (100-<1000 fold) | < 100 | – | – | –
14 | Cc1cn(S(=O)(=O)C(C)C)nc1Nc1ncc(C(=O)Nc2c(C)ccc(O)c2C)s1 [BAA-268, N-(3-hydroxy-2,6-dimethylphenyl)-2-((1-(isopropylsulfonyl)-4-methyl-1H-pyrazol-3-yl)amino) thiazole-5-carboxamide] | > 5000 | Y (>20 fold) | – | – | – | < 100 | < 50 | > 11000 | Y (1000-5000 fold)
15 | Cc1ccc(NC(=O)c2ccc(F)cc2)nc1Nc1ncc(C(=O)Nc2c(C)ccc(O)c2C)s1 [BAA-309, 2-((6-(4-fluorobenzamido)-3-methylpyridin-2-yl)amino)-N-(3-hydroxy-2,6-dimethylphenyl)thiazole-5-carboxamide] | 500 to 5000 | Y (>20 fold) | – | – | – | < 100 | 50 to 1000 | > 11000 | Y (1000-5000 fold)
16 | Cc1ccc(O)c(C)c1NC(=O)c1cnc(Nc2cccc(N3CCC(F)(F)CC3)n2)s1 [BAA-314, 2-((6-(4,4-difluoropiperidin-1-yl)pyridin-2-yl)amino)-N-(3-hydroxy-2,6-dimethylphenyl)thiazole-5-carboxamide] | 500 to 5000 | Y (>20 fold) | – | – | – | < 100 | 50 to 1000 | 1000 to 11000 | W (10-<100 fold)
